In ChEMBL document CHEMBL1145018, “Molecular basis of the antitumor activities of 2-crotonyloxymethyl-2-cycloalkenones” (J Med Chem, 2003):

Tests used:
Type in all cases: functional, cell-based
[1] = tested on: B16; assay: Tested in vitro growth inhibition against B16 melanotic melanoma cells; settings: Mus musculus
[2] = tested on: HT-29; assay: Tested for cytotoxicity against HT-29 (MDR)cells; settings: Homo sapiens
[3] = tested on: HT-29; assay: Tested for cytotoxicity against HT-29 (wt)cells; settings: Homo sapiens

IC50 [1] | Structure (SMILES) | IC50 [2] | IC50 [3]
41 nM | C/C=C/C(=O)OCC1=CCCCC1=O | 1800 nM | 800 nM
144 nM | C/C=C/C(=O)OCC1=CCCC1=O |  | 
29 nM | C/C=C/C(=O)OCC1=CCCCCC1=O |  | 
 | CC[C@]1(O)C[C@H]2CN(CCc3c([nH]c4ccccc34)[C@@](C(=O)OC)(c3cc4c(cc3OC)N(C=O)[C@H]3[C@@](O)(C(=O)OC)[C@H](OC(C)=O)[C@]5(CC)C=CCN6CC[C@]43[C@@H]65)C2)C1 [VINCRISTINE] | 17 nM | 1 nM
